Results reported in PubChem BioAssay AID2060909 (Molecular Pharmacology Branch, DTP, NCI, 2025).
Where “and” joins values, the source holds several entries; their conditions need not be identical. Identical values can stand only once. Blank lines part the entries; values can stand above or below the compound they belong to.

Tested on: 362531-283-R-J2-PDC complex spheroid viability
Assay: Anticancer human tumor 362531-283-R-J2-PDC patient-derived colon adenocarcinoma cell line growth inhibition [RAS]
Details: for viability, T/C: stronger effect = lower value
From the text: RAS pathway inhibitors in Combinations in Complex Spheroids
A high-throughput screen of multi-cell type tumor spheroids was designed to identify active combinations of RAS pathway inhibitors and targeted small molecules. Complex spheroids include a stromal component modeled by human endothelial cells (HUVEC) and fibroblasts modeled by human mesenchymal stem cells (MSCs). The concentration ranges selected for each drug and investigational agent were based upon clinically achievable concentrations if the clinical Cmax of the agent was known.
Compounds. The drugs and investigational agents: abemaciclib (NSC768073), cobimetinib (NSC768068), divarasib (GDC6063, NSC841802), docetaxel (NSC628503), GDC-1971 (RLY-1971, NSC841576), gemcitabine (NSC613327), inavolisib (NSC800729), ipatasertib (NSC767898), KB-0742 (NSC834161), MRTX-1133 (NSC836407), osimertinib (NSC779217), RMC-4630 (NSC839698), RMC-6236 (NSC851965), RMC-6291 (NSC852671), Ro-3306 (NSC812927), sapanisertib (NSC764658), SN-38 (NSC673596), staurosporine (NSC755774), SY5609 (NSC837396), and tovorafenib (DAY101, NSC766906), were obtained from the National Cancer Institute (NCI) Developmental Therapeutics Program Chemical Repository. The FDA-approved anticancer drug set is available from the NCI Developmental Therapeutics Program. […] The stock solutions were prepared in dimethyl sulfoxide (DMSO, Sigma-Aldrich, St. Louis, MO, cat. D2650) at 800-fold the tested concentration and stored at -70 degrees C prior to their use. All drugs and investigational agents were tested over a range starting from a high concentration at or near the clinical Cmax and decreasing in half-log increments. If the clinical Cmax for an agent had not been determined, the highest concentration tested was 10 microM.
Cell Culture. All cells were maintained in an incubator at 37 degrees C and 5% CO2 with 95% humidity. The PDC lines were cultured according to standard operating procedures established by the NCI PDMR. All PDCs were thawed and cultured in Matrigel-coated flasks prepared with a working solution of 1X Ham's F-12 nutrient mix, without supplementation (Invitrogen, Waltham, MA, cat. 11765054), 100 U/mL penicillin-streptomycin (Invitrogen, cat. 15140122), and 2.5% Matrigel (Corning Inc., Corning, NY, cat. 354248) for the first three passages. The 362531-283-R-J2-PDC and 782815-120-R-J1-PDC lines were cultured in 6C/Colon 1B media, which includes advanced DMEM/F-12 (Thermo Fisher Scientific, cat. 12634028), 10 mM HEPES (Thermo Fisher Scientific, cat. 15630080), 1X GlutaMAX supplement (Thermo Fisher Scientific, cat. 35050061), 0.1 mg/mL primocin (InvivoGen, San Diego, CA, cat. ant-pm-2), 10% defined fetal bovine serum, heat inactivated (HyClone Laboratories Inc., Logan, UT, cat. SH30070.03HI), 50% L-WRN conditioned media (ATCC, cat. CRL-3276), 1.25 mM N-Acetyl-L-cysteine (Sigma-Aldrich, cat. A9165), 10 mM nicotinamide (Sigma-Aldrich, cat. N0636), 1X B-27 supplement (Thermo Fisher Scientific, cat. 17504044), 1X N-2 supplement (Thermo Fisher Scientific, cat. 17502048), 50 ng/mL human EGF (Thermo Fisher Scientific, cat. PHG0311), and 10 microM Y-27632 dihydrochloride (Tocris Bioscience, cat. 1254). The K12877-001-R-J1-PDC line was cultured in 6I media, which includes all 6C/Colon 1B media plus 10 ng/mL human FGF-10 (PeproTech, cat. 100-26), 1 ng/mL human FGF-2 (PeproTech, cat. 100-18B), 1 µM prostaglandin E2 (Tocris Bioscience, cat. 2296), […] hydrocortisone (Sigma-Aldrich, cat. H4001), and […] bovine insulin (Sigma-Aldrich, cat. I6634). The K86415-001-R-J1-PDC line was cultured in 6D media, which includes all 6C/Colon 1B media components minus the L-WRN conditioned media. The 485176-168-R4-J1-PDC was cultured in PANC media, which includes all 6C/Colon 1B media plus 100 ng/mL human FGF-10 (PeproTech, cat. 100-26), 500 nM SB-431542 (Selleckchem, cat. S1067), and 10 nM gastrin (Tocris Bioscience, cat. 3006). […]

[1] = curve of first compound, second compound 0.0316 µM
[2] = curve of first compound, second compound 0.1 µM
[3] = curve of first compound, second compound 0.316 µM
[4] = curve of first compound, second compound 1 µM
[5] = second compound 0.0316 µM, first compound 0.0316 µM
[6] = second compound 0.0316 µM, first compound 0.1 µM
[7] = second compound 0.0316 µM, first compound 0.316 µM
[8] = second compound 0.0316 µM, first compound 1 µM
[9] = second compound 0.1 µM, first compound 0.0316 µM
[10] = second compound 0.1 µM, first compound 0.1 µM
[11] = second compound 0.1 µM, first compound 0.316 µM
[12] = second compound 0.1 µM, first compound 1 µM
[13] = second compound 0.316 µM, first compound 0.0316 µM
[14] = second compound 0.316 µM, first compound 0.1 µM
[15] = second compound 0.316 µM, first compound 0.316 µM
[16] = second compound 0.316 µM, first compound 1 µM
[17] = second compound 1 µM, first compound 0.0316 µM
[18] = second compound 1 µM, first compound 0.1 µM
[19] = second compound 1 µM, first compound 0.316 µM
[20] = second compound 1 µM, first compound 1 µM
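Also: spheroids exposed to the agents for 7 days before readout.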
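For viability, T/C in this document: luminescence viability as percent of DMSO vehicle control wells.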

IC50 (curve of compound): > 10 µM
Compound: CC(C)NCC(C(=O)N1CCN(c2ncnc3c2C(C)CC3O)CC1)c1ccc(Cl)cc1 (stereo unspecified)
viability, T/C (compound 0.0316 µM): 103% [middle of 4 runs] | viability, T/C (compound 0.1 µM): 103% [middle of 4 runs] | viability, T/C (compound 0.316 µM): 103% [middle of 4 runs] | viability, T/C (compound 1 µM): 101% [middle of 4 runs] | viability, T/C (compound 3.16 µM): 98.5% and 102% (2×) and 98.2% | viability, T/C (compound 10 µM): 98.2% [middle of 4 runs]

IC50 (curve of first compound, second compound 0.00316 µM): > 10 µM | IC50 (curve of first compound, second compound 0.01 µM): > 10 µM | IC50 [1]: > 10 µM | IC50 [2]: > 10 µM | IC50 [3]: > 10 µM | IC50 [4]: > 10 µM
Compound: C[C@@H](NC(=O)c1ncnc(N)c1Cl)c1ncc(C(=O)Nc2cc(C(F)(F)F)c(Cl)cn2)s1 + C=CC(=O)N1CCN(c2nc(OCC3CCCN3C)nc3c(F)c(-c4nc(N)cc(C)c4C(F)(F)F)c(Cl)cc23)C(C)C1
viability, T/C (second compound 0.00316 µM, first compound 0.0316 µM): 102% | viability, T/C (second compound 0.00316 µM, first compound 0.1 µM): 109% | viability, T/C (second compound 0.00316 µM, first compound 0.316 µM): 115% | viability, T/C (second compound 0.00316 µM, first compound 1 µM): 99.1% | viability, T/C (second compound 0.00316 µM, first compound 3.16 µM): 84.9% | viability, T/C (second compound 0.00316 µM, first compound 10 µM): 63.8% | viability, T/C (second compound 0.01 µM, first compound 0.0316 µM): 103% | viability, T/C (second compound 0.01 µM, first compound 0.1 µM): 95% | viability, T/C (second compound 0.01 µM, first compound 0.316 µM): 93.1% | viability, T/C (second compound 0.01 µM, first compound 1 µM): 97.6% | viability, T/C (second compound 0.01 µM, first compound 3.16 µM): 87.3% | viability, T/C (second compound 0.01 µM, first compound 10 µM): 67.4% | viability, T/C [5]: 107% | viability, T/C [6]: 99.7% | viability, T/C [7]: 98.6% | viability, T/C [8]: 105% | viability, T/C (second compound 0.0316 µM, first compound 3.16 µM): 91.2% | viability, T/C (second compound 0.0316 µM, first compound 10 µM): 63.4% | viability, T/C [9]: 104% | viability, T/C [10]: 112% | viability, T/C [11]: 97.9% | viability, T/C [12]: 96.3% | viability, T/C (second compound 0.1 µM, first compound 3.16 µM): 99.9% | viability, T/C (second compound 0.1 µM, first compound 10 µM): 60.3% | viability, T/C [13]: 103% | viability, T/C [14]: 95.2% | viability, T/C [15]: 100% | viability, T/C [16]: 103% | viability, T/C (second compound 0.316 µM, first compound 3.16 µM): 102% | viability, T/C (second compound 0.316 µM, first compound 10 µM): 67.2% | viability, T/C [17]: 107% | viability, T/C [18]: 104% | viability, T/C [19]: 99.3% | viability, T/C [20]: 106% | viability, T/C (second compound 1 µM, first compound 3.16 µM): 97.7% | viability, T/C (second compound 1 µM, first compound 10 µM): 63.6%

IC50 [1]: 0.17 µM | IC50 [2]: 0.164 µM | IC50 [3]: 0.118 µM | IC50 [4]: 0.0744 µM | IC50 (curve of first compound, second compound 3.16 µM): 0.0576 µM | IC50 (curve of first compound, second compound 10 µM): < 0.00316 µM
Compound: Nc1ccn(C2OC(CO)C(O)C2(F)F)c(=O)n1 (stereo unspecified) + C#Cc1c(F)ccc2cc(O)cc(-c3ncc4c(N5CC6CCC(C5)N6)nc(OCC56CCCN5CC(F)C6)nc4c3F)c12
viability, T/C (second compound 0.0316 µM, first compound 0.00316 µM): 101% | viability, T/C (second compound 0.0316 µM, first compound 0.01 µM): 104% | viability, T/C [5]: 81% | viability, T/C [6]: 72.6% | viability, T/C [7]: 20.5% | viability, T/C [8]: 26.8% | viability, T/C (second compound 0.1 µM, first compound 0.00316 µM): 104% | viability, T/C (second compound 0.1 µM, first compound 0.01 µM): 97.1% | viability, T/C [9]: 85.5% | viability, T/C [10]: 72.6% | viability, T/C [11]: 15.2% | viability, T/C [12]: 24.4% | viability, T/C (second compound 0.316 µM, first compound 0.00316 µM): 92.5% | viability, T/C (second compound 0.316 µM, first compound 0.01 µM): 92.4% | viability, T/C [13]: 84.1% | viability, T/C [14]: 56.4% | viability, T/C [15]: 16.5% | viability, T/C [16]: 17.5% | viability, T/C (second compound 1 µM, first compound 0.00316 µM): 76.9% | viability, T/C (second compound 1 µM, first compound 0.01 µM): 79.5% | viability, T/C [17]: 66.8% | viability, T/C [18]: 45.5% | viability, T/C [19]: 13.8% | viability, T/C [20]: 17.5% | viability, T/C (second compound 3.16 µM, first compound 0.00316 µM): 61.1% | viability, T/C (second compound 3.16 µM, first compound 0.01 µM): 62.6% | viability, T/C (second compound 3.16 µM, first compound 0.0316 µM): 61.3% | viability, T/C (second compound 3.16 µM, first compound 0.1 µM): 39.9% | viability, T/C (second compound 3.16 µM, first compound 0.316 µM): 14.8% | viability, T/C (second compound 3.16 µM, first compound 1 µM): 12.8% | viability, T/C (second compound 10 µM, first compound 0.00316 µM): 54.7% | viability, T/C (second compound 10 µM, first compound 0.01 µM): 45.1% | viability, T/C (second compound 10 µM, first compound 0.0316 µM): 41.7% | viability, T/C (second compound 10 µM, first compound 0.1 µM): 15.1% | viability, T/C (second compound 10 µM, first compound 0.316 µM): 18.1% | viability, T/C (second compound 10 µM, first compound 1 µM): 16.2%
